Laboratory results taken from ChEMBL document CHEMBL5046281, “N-Aryl Mercaptopropionamides as Broad-Spectrum Inhibitors of Metallo-β-Lactamases” (J Med Chem, 2022).
Values after ≈ are worked out from the molar mass of the structure shown. Active and inactive are the calls of the source. No cut-off for these calls is given here.

Assays:
[1] = Inhibition of Escherichia coli NDM-1 using fluorocillin as substrate incubated for 30 mins by fluorescence based assay
[2] = Inhibition of Escherichia coli IMP-7 using fluorocillin as substrate incubated for 30 mins by fluorescence based assay
BlaVIM-1 = BlaVIM-1 (Escherichia coli, UniProt Q8GDC1); test: Inhibition of Escherichia coli VIM-1 using fluorocillin as substrate incubated for 30 mins by fluorescence based assay
[3] = Lipophilicity, log D of the compound at pH 7.4 by HPLC-MS analysis; assay type: physicochemical; settings: buffer
Escherichia coli [4] = test: Antibacterial activity against NDM-1 expressing Escherichia coli isolates assessed as inhibition of bacterial growth by microdilution method; assay type: functional, organism-based
Escherichia coli [5] = test: Antibacterial activity against VIM-1 expressing Escherichia coli isolates assessed as inhibition of bacterial growth by microdilution method; assay type: functional, organism-based
Escherichia coli [6] = test: Antibacterial activity against IMP-1 expressing Escherichia coli isolates assessed as inhibition of bacterial growth by microdilution method; assay type: functional, organism-based
Pseudomonas aeruginosa [7] = test: Antibacterial activity against VIM-2 expressing Pseudomonas aeruginosa isolates assessed as inhibition of bacterial growth by microdilution method; assay type: functional, organism-based
[8] = molecular target: T1, Interstitial collagenase (Homo sapiens) (UniProt P03956); test: Inhibition of human MMP-1 at 100 uM relative to control
T1 sequence (whole entry): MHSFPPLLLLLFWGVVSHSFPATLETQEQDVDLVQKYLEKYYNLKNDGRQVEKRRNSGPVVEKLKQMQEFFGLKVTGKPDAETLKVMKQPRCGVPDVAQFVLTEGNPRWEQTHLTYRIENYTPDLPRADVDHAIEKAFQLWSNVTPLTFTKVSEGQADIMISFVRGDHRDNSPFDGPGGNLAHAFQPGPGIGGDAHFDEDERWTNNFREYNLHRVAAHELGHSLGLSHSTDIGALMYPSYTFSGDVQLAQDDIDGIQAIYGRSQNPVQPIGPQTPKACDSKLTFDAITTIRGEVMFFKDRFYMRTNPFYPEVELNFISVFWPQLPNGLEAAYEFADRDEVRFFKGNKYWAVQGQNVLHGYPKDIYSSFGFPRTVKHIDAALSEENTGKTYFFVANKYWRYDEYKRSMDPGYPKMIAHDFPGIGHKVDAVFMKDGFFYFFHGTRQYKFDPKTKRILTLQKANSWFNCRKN

[9] = molecular target: T2, 72 kDa type IV collagenase (Homo sapiens, UniProt P08253); test: Inhibition of human MMP-2 at 100 uM relative to control
Target sequence in this assay (P08253 110-660 limits assumed): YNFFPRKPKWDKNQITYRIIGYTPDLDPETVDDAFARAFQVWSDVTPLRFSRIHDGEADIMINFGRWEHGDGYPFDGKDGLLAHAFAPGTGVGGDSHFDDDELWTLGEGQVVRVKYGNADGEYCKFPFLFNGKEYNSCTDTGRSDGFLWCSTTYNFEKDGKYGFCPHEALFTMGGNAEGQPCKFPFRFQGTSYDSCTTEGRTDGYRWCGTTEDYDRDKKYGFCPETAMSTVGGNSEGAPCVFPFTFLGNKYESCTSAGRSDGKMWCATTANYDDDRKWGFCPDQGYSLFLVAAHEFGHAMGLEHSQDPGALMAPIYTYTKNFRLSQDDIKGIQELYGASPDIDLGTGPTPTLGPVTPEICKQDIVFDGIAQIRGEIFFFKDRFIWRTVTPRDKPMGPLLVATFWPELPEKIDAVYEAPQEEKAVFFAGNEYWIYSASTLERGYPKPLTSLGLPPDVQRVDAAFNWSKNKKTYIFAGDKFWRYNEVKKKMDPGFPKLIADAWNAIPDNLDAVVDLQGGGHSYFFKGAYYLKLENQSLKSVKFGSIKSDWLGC

[10] = molecular target: Stromelysin-1 (Homo sapiens) (UniProt P08254); test: Inhibition of human MMP-3 at 100 uM relative to control
[11] = molecular target: T3, Matrilysin (Homo sapiens) (UniProt P09237); test: Inhibition of human MMP-7 at 100 uM relative to control
T3 sequence (whole entry): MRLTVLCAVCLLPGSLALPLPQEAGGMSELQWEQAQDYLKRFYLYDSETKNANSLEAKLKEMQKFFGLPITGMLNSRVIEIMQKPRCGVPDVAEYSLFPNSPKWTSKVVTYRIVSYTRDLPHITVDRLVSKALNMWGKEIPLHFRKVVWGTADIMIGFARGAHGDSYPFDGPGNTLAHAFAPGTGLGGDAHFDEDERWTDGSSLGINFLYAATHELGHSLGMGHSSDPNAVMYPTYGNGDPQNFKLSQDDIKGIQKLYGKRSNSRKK

[12] = molecular target: Neutrophil collagenase (Homo sapiens) (UniProt P22894); test: Inhibition of human MMP-8 at 100 uM relative to control
[13] = molecular target: T4, Matrix metalloproteinase-14 (Homo sapiens, UniProt P50281); test: Inhibition of human MMP-14 at 100 uM relative to control
[14] = molecular target: Disintegrin and metalloproteinase domain-containing protein 17 (Homo sapiens) (UniProt P78536); test: Inhibition of human TACE at 100 uM relative to control
[15] = molecular target: T4, Matrix metalloproteinase-14; test: Inhibition of human MMP-14
HepG2 = test: Cytotoxicity against human HepG2 cells assessed as reduction in cell viability at 100 uM relative to control; assay type: toxicity, cell-based; settings: hepg2, 100 µM
HEK293 = test: Cytotoxicity against human HEK293 cells assessed as reduction in cell viability at 100 uM relative to control; assay type: toxicity, cell-based; settings: hek293, 100 µM
A549 = test: Cytotoxicity against human A549 cells assessed as reduction in cell viability at 100 uM relative to control; assay type: toxicity, cell-based; settings: a549, 100 µM
[16] = Toxicity in zebrafish embryo assessed as maximum tolerated concentration measured up to 120 hrs; set-up: species or system Danio rerio; settings: in vivo, read-out: MTC
[17] = molecular target: T2, 72 kDa type IV collagenase; test: Inhibition of human MMP-2
Target sequence in this assay (P08253 whole entry): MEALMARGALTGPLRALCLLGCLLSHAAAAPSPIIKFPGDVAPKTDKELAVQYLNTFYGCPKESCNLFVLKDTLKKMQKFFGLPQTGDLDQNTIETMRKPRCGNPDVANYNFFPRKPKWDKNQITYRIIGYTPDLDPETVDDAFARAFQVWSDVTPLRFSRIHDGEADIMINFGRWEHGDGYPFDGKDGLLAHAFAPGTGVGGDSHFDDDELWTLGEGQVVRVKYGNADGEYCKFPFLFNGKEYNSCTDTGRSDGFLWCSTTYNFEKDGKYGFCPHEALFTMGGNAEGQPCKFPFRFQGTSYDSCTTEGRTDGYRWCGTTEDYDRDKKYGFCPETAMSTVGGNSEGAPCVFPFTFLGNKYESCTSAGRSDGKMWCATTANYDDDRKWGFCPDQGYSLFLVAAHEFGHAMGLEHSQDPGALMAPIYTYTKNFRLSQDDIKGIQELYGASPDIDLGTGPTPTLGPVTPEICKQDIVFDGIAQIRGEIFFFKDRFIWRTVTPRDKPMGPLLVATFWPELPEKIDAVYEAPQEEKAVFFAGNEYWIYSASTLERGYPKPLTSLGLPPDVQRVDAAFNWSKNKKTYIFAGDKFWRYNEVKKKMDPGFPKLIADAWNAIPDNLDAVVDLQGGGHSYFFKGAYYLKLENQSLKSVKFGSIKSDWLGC

Pseudomonas aeruginosa [18] = test: Inhibition of Pseudomonas aeruginosa quorum sensing system LasB at 100 uM
Enterobacter cloacae [19] = test: Antibacterial activity against GIM-1 producing Enterobacter cloacae T2218 clinical isolates assessed as inhibition of bacterial growth by microdilution method; assay type: functional
Escherichia coli [20] = test: Antibacterial activity against NDM-7 producing Escherichia coli T2239 clinical isolates assessed as inhibition of bacterial growth by microdilution method; assay type: functional
Klebsiella pneumoniae [21] = test: Antibacterial activity against NDM-1 producing Klebsiella pneumoniae T2301 clinical isolates assessed as inhibition of bacterial growth by microdilution method; assay type: functional
Enterobacter cloacae [22] = test: Antibacterial activity against NDM-1 producing Enterobacter cloacae T2311 clinical isolates assessed as inhibition of bacterial growth by microdilution method; assay type: functional
Serratia marcescens = test: Antibacterial activity against NDM-1 producing Serratia marcescens T2352 clinical isolates assessed as inhibition of bacterial growth by microdilution method; assay type: functional
Escherichia coli [23] = test: Antibacterial activity against NDM-5 producing Escherichia coli T2351 clinical isolates assessed as inhibition of bacterial growth by microdilution method
Pseudomonas aeruginosa [24] = test: Antibacterial activity against VIM-1 producing Pseudomonas aeruginosa T2357 clinical isolates assessed as inhibition of bacterial growth by microdilution method; assay type: functional
Enterobacter cloacae [25] = test: Antibacterial activity against VIM-1 producing Enterobacter cloacae T2353 clinical isolates assessed as inhibition of bacterial growth by microdilution method; assay type: functional
Pseudomonas aeruginosa [26] = test: Antibacterial activity against IMP-1 producing Pseudomonas aeruginosa T2325 clinical isolates assessed as inhibition of bacterial growth by microdilution method
Acinetobacter baumannii = test: Antibacterial activity against OXA-23 producing Acinetobacter baumannii T2434 clinical isolates assessed as inhibition of bacterial growth by microdilution method; assay type: functional
Escherichia coli [27] = test: Antibacterial activity against KPC-2 producing Escherichia coli T2435 clinical isolates assessed as inhibition of bacterial growth by microdilution method; assay type: functional
Klebsiella pneumoniae [28] = test: Antibacterial activity against imipenem-resistant NDM-1-producing Klebsiella pneumoniae T2301 infected in Galleria mellonella larvae assessed as survival rate at 0.12 ug injected via proleg measured after 3 days by Kaplan-Meier method; assay type: functional; settings: dose 0.12 µg; time 3 day

Chain of Stromelysin-1 (Homo sapiens) (P08254 100-477 limits assumed): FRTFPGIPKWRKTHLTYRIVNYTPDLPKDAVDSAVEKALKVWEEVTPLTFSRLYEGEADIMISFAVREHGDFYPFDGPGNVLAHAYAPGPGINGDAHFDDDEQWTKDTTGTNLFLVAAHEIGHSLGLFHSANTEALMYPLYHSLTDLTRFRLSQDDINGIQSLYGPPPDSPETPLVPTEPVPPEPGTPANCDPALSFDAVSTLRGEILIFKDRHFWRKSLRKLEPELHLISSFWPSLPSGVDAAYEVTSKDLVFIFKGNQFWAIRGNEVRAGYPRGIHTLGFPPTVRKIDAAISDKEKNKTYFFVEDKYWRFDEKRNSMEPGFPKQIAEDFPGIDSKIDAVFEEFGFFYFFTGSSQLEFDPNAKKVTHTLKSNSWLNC
Chain of Disintegrin and metalloproteinase domain-containing protein 17 (Homo sapiens) (P78536 whole entry, the tested form may be a part): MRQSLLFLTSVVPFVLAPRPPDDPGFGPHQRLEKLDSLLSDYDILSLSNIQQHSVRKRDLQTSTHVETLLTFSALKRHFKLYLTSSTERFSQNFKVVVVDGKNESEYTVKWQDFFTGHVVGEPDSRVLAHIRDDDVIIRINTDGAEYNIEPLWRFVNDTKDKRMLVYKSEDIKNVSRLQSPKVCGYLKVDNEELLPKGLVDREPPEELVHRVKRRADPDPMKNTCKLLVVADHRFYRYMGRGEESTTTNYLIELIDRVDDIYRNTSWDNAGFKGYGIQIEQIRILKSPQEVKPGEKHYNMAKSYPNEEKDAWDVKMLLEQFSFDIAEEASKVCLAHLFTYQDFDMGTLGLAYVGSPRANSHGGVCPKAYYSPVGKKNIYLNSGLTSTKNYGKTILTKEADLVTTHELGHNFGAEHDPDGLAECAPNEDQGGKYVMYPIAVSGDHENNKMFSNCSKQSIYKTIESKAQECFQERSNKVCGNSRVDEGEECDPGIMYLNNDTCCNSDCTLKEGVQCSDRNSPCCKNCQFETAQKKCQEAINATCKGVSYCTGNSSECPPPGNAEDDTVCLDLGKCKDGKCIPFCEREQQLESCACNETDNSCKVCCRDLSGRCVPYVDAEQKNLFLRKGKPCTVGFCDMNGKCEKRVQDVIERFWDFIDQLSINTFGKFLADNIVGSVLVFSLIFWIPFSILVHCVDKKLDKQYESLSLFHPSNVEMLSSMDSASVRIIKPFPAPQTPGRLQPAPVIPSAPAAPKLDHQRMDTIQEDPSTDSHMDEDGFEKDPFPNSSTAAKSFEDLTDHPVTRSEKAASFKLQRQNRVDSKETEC
Chain of Neutrophil collagenase (Homo sapiens) (P22894 101-467 limits assumed): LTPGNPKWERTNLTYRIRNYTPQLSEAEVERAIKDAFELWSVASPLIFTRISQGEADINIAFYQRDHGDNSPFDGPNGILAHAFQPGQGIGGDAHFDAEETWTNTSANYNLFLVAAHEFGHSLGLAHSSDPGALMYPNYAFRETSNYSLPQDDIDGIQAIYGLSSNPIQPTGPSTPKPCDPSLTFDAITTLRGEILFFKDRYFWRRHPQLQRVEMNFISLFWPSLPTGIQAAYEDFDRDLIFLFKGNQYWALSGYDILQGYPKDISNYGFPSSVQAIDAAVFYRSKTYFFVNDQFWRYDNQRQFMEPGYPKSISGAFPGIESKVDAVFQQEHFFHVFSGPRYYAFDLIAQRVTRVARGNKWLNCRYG

| IC50 [1] [nM] | IC50 [2] [nM] | IC50 (BlaVIM-1) [nM] | logD [3] | Structure (SMILES) | Activity (Escherichia coli [4]) | Activity (Escherichia coli [5]) | Activity (Escherichia coli [6]) | Activity (Pseudomonas aeruginosa [7]) | other results |
| --- | --- | --- | --- | --- | --- | --- | --- | --- | --- |
| 700 | 4600 | 900 | 0.49 | O=C(O)[C@H]1CCCCN1C(=O)C(CS)Cc1ccccc1 (stereo not given in full) | – | – | – | – | – |
| 7000 | > 10000 | 1900 | 1.1 | CS(=O)(=O)Nc1ccccc1NC(=O)CCS | – | – | – | – | – |
| 2500 | 2600 | 100 | 2.21 | O=C(CCS)Nc1cccc([N+](=O)[O-])c1 | – | – | – | – | – |
| 2200 | – | 1300 | 0.62 | CS(=O)(=O)Nc1cccc(NC(=O)CCS)c1 | – | – | – | – | – |
| 6500 | 5500 | 800 | 0.24 | CCN(CC)Cc1cccc(NC(=O)CCS)c1 | – | – | – | – | – |
| 5500 | 5100 | 1000 | 0.28 | NCc1cccc(NC(=O)CCS)c1 | inactive | inactive | inactive | inactive | – |
| 1500 | 5500 | 400 | 1.35 | CC(=O)c1ccc(NC(=O)CCS)cc1 | – | – | – | – | – |
| 4000 | 3400 | 200 | 0.32 | O=C(CCS)Nc1ccc(O)cc1 | – | – | – | – | – |
| 6500 | 2100 | 500 | -0.31 | Nc1ccc(NC(=O)CCS)cc1 | – | – | – | – | – |
| 1300 | 1000 | 10000 | 1.95 | COC(=O)c1ccccc1NC(=O)CCS | – | – | – | – | – |
| 2200 | 3300 | 200 | 1.14 | O=C(CCS)Nc1ccccc1O | – | – | – | – | – |
| 6400 | 5800 | 1500 | 0.28 | CN1CCN(Cc2ccc(NC(=O)CCS)cc2)CC1 | – | – | – | – | – |
| 2800 | 1100 | 100 | 1.95 | COC(=O)c1ccc(NC(=O)CCS)cc1 | – | – | – | – | inhibition (Pseudomonas aeruginosa [18]): Active |
| 1300 | 3600 | 1600 | -1.35 | O=C(CCS)Nc1cccc(S(=O)(=O)O)c1 | inactive | inactive | inactive | inactive | – |
| 2800 | 2100 | 800 | 1.7 | CN(C)S(=O)(=O)c1ccc(NC(=O)CCS)cc1 | inactive | inactive | inactive | inactive | – |
| 2500 | 7100 | 1700 | 1.52 | O=C(CCS)Nc1ccc(S(=O)(=O)N2CCOCC2)cc1 | – | – | – | – | – |
| 1300 | 5000 | 100 | 5.34 | O=C(CCS)Nc1ccc(Cl)c(Cl)c1 | inactive | inactive | inactive | inactive | inhibition [8]: < 10%; inhibition [9]: 14%; inhibition [10]: < 10%; inhibition [11]: < 10%; inhibition [12]: 22%; inhibition [13]: 18%; Activity (HepG2): < 10%; Activity (HEK293): < 10%; Activity (A549): < 10%; inhibition (Pseudomonas aeruginosa [18]): Active |
| 1000 | > 10000 | 600 | -1.65 | O=C(CCS)Nc1ccc(C(=O)O)cc1 | – | – | – | – | – |
| 2700 | 1400 | 100 | 0.41 | O=C(CCS)Nc1cccc(O)c1 | – | – | – | – | – |
| – | – | – | – | C[C@@H](O)[C@H]1C(=O)N2C(C(=O)O)=C(SCCNC=N)C[C@H]12 [IMIPENEM ANHYDROUS] | – | – | – | – | MIC (Enterobacter cloacae [19]): 2 µg/mL (≈ 6.68 µM); MIC (Escherichia coli [20]): 32 µg/mL (≈ 107 µM); MIC (Klebsiella pneumoniae [21]): 16 µg/mL (≈ 53.4 µM); MIC (Enterobacter cloacae [22]): 8 µg/mL (≈ 26.7 µM); MIC (Serratia marcescens): 256 µg/mL (≈ 855 µM); MIC (Escherichia coli [23]): 8 µg/mL (≈ 26.7 µM); MIC (Pseudomonas aeruginosa [24]): 256 µg/mL (≈ 855 µM); MIC (Enterobacter cloacae [25]): 4 µg/mL (≈ 13.4 µM); MIC (Pseudomonas aeruginosa [26]): 16 µg/mL (≈ 53.4 µM); MIC (Acinetobacter baumannii): 32 µg/mL (≈ 107 µM); MIC (Escherichia coli [27]): 4 µg/mL (≈ 13.4 µM); Activity (Klebsiella pneumoniae [28]): <=25% |

| Structure (SMILES) | IC50 [1] [nM] | IC50 [2] [nM] | IC50 (BlaVIM-1) [nM] | logD [3] | Activity (Escherichia coli [4]) | Activity (Escherichia coli [5]) | Activity (Escherichia coli [6]) | Activity (Pseudomonas aeruginosa [7]) | other results |
| --- | --- | --- | --- | --- | --- | --- | --- | --- | --- |
| O=C(CCS)Nc1ccccc1C(=O)O | 3400 | 4100 | 2200 | -0.92 | inactive | inactive | inactive | inactive | inhibition [8]: < 10%; inhibition [9]: < 10%; inhibition [10]: 17%; inhibition [11]: 11%; inhibition [12]: < 10%; inhibition [13]: 77%; inhibition [14]: < 10%; IC50 [15]: 12000 nM; Activity (HepG2): < 10%; Activity (HEK293): < 10%; Activity (A549): < 10%; MNTC at 120 h [16]: ≥ 150 µM |
| NC(=O)NS(=O)(=O)c1ccc(NC(=O)CCS)cc1 | 8600 | 12600 | 2000 | -1.69 | inactive | inactive | inactive | inactive | inhibition [8]: < 10%; inhibition [9]: 88%; inhibition [10]: < 10%; inhibition [11]: 32%; inhibition [12]: < 10%; inhibition [13]: 73%; inhibition [14]: < 10%; IC50 [17]: 64000 nM; IC50 [15]: 31000 nM; Activity (HepG2): < 10%; Activity (HEK293): < 10%; Activity (A549): < 10%; MNTC at 120 h [16]: ≥ 150 µM; inhibition (Pseudomonas aeruginosa [18]): Active |
| N=C(N)NS(=O)(=O)c1ccc(NC(=O)CCS)cc1 | 2100 | 3300 | 500 | -0.5 | inactive | inactive | inactive | inactive | inhibition [8]: < 10%; inhibition [9]: < 10%; inhibition [10]: < 10%; inhibition [11]: < 10%; inhibition [12]: < 10%; inhibition [13]: < 10%; inhibition [14]: 32%; Activity (HepG2): < 10%; Activity (HEK293): < 10%; Activity (A549): < 10%; MNTC at 120 h [16]: ≥ 150 µM |
